Assay results taken from PubChem BioAssay AID1224921 (Broad Institute, 2016).
Activity calls are given as the source filed them. How the calls were made is not given here.

Tested on: Clostridioides difficile clinical isolate growth, OD600, 24 h
Assay: C. difficile growth inhibition, confirmation, 4-point retest (AID 1224921)

Compound | AC50
O=C(Nc1ccc(-c2ccccc2)cc1)[C@H]1[C@H](CO)[C@H]2Cn3c(cccc3=O)[C@H]2N1CC1CCCCC1 | > 60 µM (inactive)
CO[C@H]1CN(C)C(=O)c2cc(NC(=O)Nc3cc(Cl)cc(Cl)c3)ccc2OC[C@@H](C)NC[C@H]1C | 9.49 µM
O=C(C[C@@H]1CC[C@H]2[C@@H](COC[C@H](O)CN2S(=O)(=O)c2ccc(Cl)cc2)O1)NCc1ccc(Cl)c(Cl)c1 | 30.9 µM
C[C@H](NC(=O)C[C@H]1CC[C@H]2[C@@H](COC[C@@H](O)CN2C(=O)Nc2cc(Cl)cc(Cl)c2)O1)c1ccccc1 | 17.9 µM
O=C(C[C@H]1C[C@H]2c3cc(NC(=O)Nc4ccccc4)ccc3O[C@H]2[C@H](CO)O1)NC1CCCC1 | > 60 µM (inactive)
C[C@@H]1CN([C@@H](C)CO)C(=O)c2cccc(NC(=O)Nc3ccc(F)cc3)c2O[C@@H]1CN(C)Cc1ccc(C(F)(F)F)cc1 | 2.37 µM
CN(C)CC(=O)N1[C@H](C#N)[C@H](c2ccc(C#CC3CCCCC3)cc2)[C@H]1CO | 14.2 µM
C[C@@H]1CN([C@H](C)CO)C(=O)c2cccc(NC(=O)Nc3ccc(C(F)(F)F)cc3)c2O[C@@H]1CN(C)C(=O)Nc1ccccc1 | 32.9 µM
CCCNC(=O)C[C@@H]1CC[C@H]2[C@@H](COC[C@@H](O)CN2C(=O)Nc2ccc(Cl)c(Cl)c2)O1 | 2.59 µM
Cc1cc(C(=O)Nc2cccc3c2O[C@@H](CN(C)Cc2ccc(-c4ccccc4)cc2)[C@H](C)CN([C@@H](C)CO)C3=O)n(C)n1 | 1.01 µM
C[C@H](C(=O)N(C)C[C@@H]1OCc2ccccc2-c2ccccc2C(=O)N([C@H](C)CO)C[C@@H]1C)c1ccccc1 | > 60 µM (inactive)
CO[C@H]1CN(C)C(=O)c2ccc(NC(=O)c3cccc(F)c3)cc2OC[C@@H](C)N(C(C)=O)C[C@@H]1C | > 60 µM (inactive)
O=C(C[C@H]1CC[C@@H]2[C@H](COC[C@@H](O)CN2C(=O)Nc2ccc(Cl)c(Cl)c2)O1)NCc1ccncc1 | 4.06 µM
CCNC(=O)C[C@H]1CC[C@H]2[C@@H](COC[C@@H](O)CN2C(=O)Nc2ccc(C(F)(F)F)cc2)O1 | 2.77 µM
COc1ccccc1C#Cc1ccc([C@H]2[C@@H](CO)N(C(=O)C3CCCCC3)[C@H]2C#N)cc1 | 34.2 µM
C[C@H](CO)N1C[C@H](C)[C@@H](CN(C)CC2CCCCC2)OCCCC[C@H](C)Oc2ccc(NC(=O)Nc3ccc(C(F)(F)F)cc3)cc2C1=O | 13.6 µM
O=C(C[C@@H]1CC[C@H]2[C@@H](COC[C@@H](O)CN2C(=O)Nc2cc(Cl)cc(Cl)c2)O1)N1CCCCC1 | 6.58 µM
COc1ccccc1S(=O)(=O)N[C@@H]1C=C[C@@H](CC(=O)N2CCCCC2)O[C@H]1CO | > 60 µM (inactive)
COc1ccc(CN(C)C[C@H]2OCCCC[C@@H](C)Oc3ccc(NC(=O)Nc4cccc5ccccc45)cc3C(=O)N([C@@H](C)CO)C[C@@H]2C)cc1 | 27.4 µM
O=C(C[C@H]1CC[C@@H]2[C@H](COC[C@@H](O)CN2C(=O)Nc2ccc(Cl)c(Cl)c2)O1)NCc1ccc(Cl)cc1 | 3.67 µM
O=C(C[C@H]1CC[C@H]2[C@@H](COC[C@H](O)CN2C(=O)Nc2ccc(Cl)c(Cl)c2)O1)NCc1ccccc1 | 1.11 µM
CCNC(=O)C[C@@H]1CC[C@H]2[C@@H](COC[C@H](O)CN2C(=O)Nc2ccc(Cl)c(Cl)c2)O1 | 7.98 µM
O=C(C[C@H]1CC[C@@H]2[C@H](COC[C@H](O)CN2C(=O)Nc2ccc(Cl)c(Cl)c2)O1)NC1CCC1 | 4.46 µM
O=C(C[C@H]1CC[C@H]2[C@@H](COC[C@H](O)CN2C(=O)Nc2cc(Cl)cc(Cl)c2)O1)N1CCOCC1 | 4.04 µM

Compound | AC50
CO[C@H]1CN(C)C(=O)c2cc(NC(=O)Nc3cc(Cl)cc(Cl)c3)ccc2OC[C@@H](C)NC[C@@H]1C | 14.7 µM
C[C@@H]1CN([C@@H](C)CO)C(=O)c2cc(NC(=O)Nc3cccc4ccccc34)ccc2O[C@@H](C)CCCCO[C@H]1CN(C)CC1CCCCC1 | 32.1 µM
O=C(C[C@@H]1CC[C@@H]2[C@H](COC[C@@H](O)CN2C(=O)Nc2cc(Cl)cc(Cl)c2)O1)N1CCOCC1 | 14.2 µM
CS(=O)(=O)N1[C@H](CO)[C@@H](c2ccc(C#CC3CCCCC3)cc2)[C@@H]1C#N | 17.6 µM
CO[C@@H]1CN(C)C(=O)c2cc(NC(=O)Nc3ccc(Cl)c(Cl)c3)ccc2OC[C@H](C)NC[C@H]1C | 6.72 µM
O=C(NCC[C@@H]1CC[C@H](NC(=O)c2cccnc2)[C@H](CO)O1)Nc1ccc(C(F)(F)F)cc1 | 3.01 µM
O=C(C[C@H]1CC[C@@H]2[C@H](COC[C@H](O)CN2C(=O)Nc2ccc(Cl)c(Cl)c2)O1)NCc1ccc(Cl)c(Cl)c1 | < 0.5 µM
C[C@@H]1CN([C@H](C)CO)C(=O)c2cc(NC(=O)Nc3ccc(C(F)(F)F)cc3)ccc2O[C@@H](C)CCCCO[C@H]1CN(C)Cc1ccccc1 | 6.56 µM
COc1ccc(-c2ccc([C@H]3[C@@H](C#N)N(C(=O)C4CCC4)[C@H]3CO)cc2)cc1 | > 70 µM (inactive)
O=C(C[C@H]1CC[C@H]2[C@@H](COC[C@H](O)CN2C(=O)Nc2ccc(Cl)c(Cl)c2)O1)NCc1ccc(F)cc1 | 2.08 µM
O=C(C[C@@H]1CC[C@@H]2[C@H](COC[C@@H](O)CN2C(=O)Nc2ccc(Cl)c(Cl)c2)O1)NC1CCC1 | 2.82 µM
COc1ccc(CN(C)C[C@@H]2OCCCC[C@H](C)Oc3ccc(NC(=O)Nc4cccc5ccccc45)cc3C(=O)N([C@H](C)CO)C[C@H]2C)cc1 | 22.6 µM
C[C@H]1CN([C@@H](C)CO)C(=O)c2cc(C#CCc3ccccc3)cnc2O[C@@H]1CN(C)CC1CCCC1 | 29.7 µM
CO[C@@H]1CN(C)C(=O)c2ccc(NC(=O)C3CCOCC3)cc2OC[C@@H](C)N(C(=O)Nc2ccc(C(F)(F)F)cc2)C[C@H]1C | 16.1 µM
CO[C@H]1CN(C)C(=O)c2cc(NC(=O)Nc3cc(Cl)cc(Cl)c3)ccc2OC[C@H](C)NC[C@@H]1C | 9.09 µM
O=C(C[C@H]1CC[C@H]2[C@@H](COC[C@H](O)CN2C(=O)Nc2ccc(Cl)c(Cl)c2)O1)NC1CCC1 | 2.03 µM
CO[C@@H](CN(C)C(=O)C1CCOCC1)[C@@H](C)CN(C(=O)Nc1ccc(C(F)(F)F)cc1)[C@H](C)CO | 6.17 µM
CN(C)CC(=O)N[C@@H]1C=C[C@@H](CC(=O)NCCN2CCCCC2)O[C@H]1CO | > 60 µM (inactive)
CO[C@H](CN(C)S(=O)(=O)c1cn(C)cn1)[C@@H](C)CN(C(=O)Nc1ccc(C(F)(F)F)cc1)[C@@H](C)CO | 2.93 µM
CCCNC(=O)N1[C@@H](C#N)[C@H](c2ccc(C#Cc3ccc(F)cc3)cc2)[C@@H]1CO | 36.3 µM
O=C(Nc1ccc(-c2ccccc2)cc1)[C@@H]1[C@@H](CO)[C@@H]2Cn3c(cccc3=O)[C@@H]2N1CC1CCCCC1 | > 60 µM (inactive)
COc1cccc(C#Cc2ccc([C@H]3[C@@H](CO)N(C(=O)C4CCCCC4)[C@H]3C#N)cc2)c1 | 19 µM
COc1cccc(C#Cc2cnc3c(c2)C(=O)N([C@H](C)CO)C[C@H](C)[C@@H](CN(C)C)O3)c1 | 33.2 µM
COc1ccccc1CNC(=O)C[C@@H]1CC[C@H]2[C@@H](COC[C@@H](O)CN2C(=O)Nc2ccc(C(F)(F)F)cc2)O1 | 2.14 µM

Compound | AC50
C[C@@H]1CCCCO[C@H](CN(C)CC2CCCCC2)[C@H](C)CN([C@H](C)CO)C(=O)c2cc(NC(=O)Nc3ccc(C(F)(F)F)cc3)ccc2O1 | 13.6 µM
CCCNC(=O)Nc1ccc2c(c1)C(=O)N(C)C[C@@H](OC)[C@@H](C)CN(C)[C@H](C)CO2 | > 60 µM (inactive)
O=C(C[C@H]1CC[C@@H]2[C@H](COC[C@@H](O)CN2C(=O)Nc2cc(Cl)cc(Cl)c2)O1)N1CCOCC1 | 15.3 µM
CCCN(C)C[C@@H]1OCCCC[C@H](C)Oc2ccc(NC(=O)Nc3ccc(C(F)(F)F)cc3)cc2C(=O)N([C@@H](C)CO)C[C@@H]1C | 12.5 µM
CO[C@@H](CN(C)S(=O)(=O)c1cn(C)cn1)[C@H](C)CN(C(=O)Nc1ccc(C(F)(F)F)cc1)[C@@H](C)CO | 2.44 µM
CCCNC(=O)C[C@@H]1CC[C@H]2[C@@H](COC[C@H](O)CN2C(=O)Nc2ccc(Cl)c(Cl)c2)O1 | 5.98 µM
CO[C@H]1CN(C)C(=O)c2cc(NC(C)=O)ccc2OC[C@@H](C)N(CCc2ccccc2)C[C@H]1C | > 60 µM (inactive)
O=C(C[C@H]1CC[C@H](NC(=O)CN2CCOCC2)[C@@H](CO)O1)NCc1cccc(F)c1 | > 60 µM (inactive)
COc1ccccc1CNC(=O)C[C@@H]1CC[C@@H]2[C@H](COC[C@@H](O)CN2C(=O)Nc2ccc(C(F)(F)F)cc2)O1 | 1.6 µM
CO[C@H]1CN(C)C(=O)c2ccc(NC(=O)Nc3cc(Cl)cc(Cl)c3)cc2OC[C@@H](C)NC[C@@H]1C | 15.9 µM
COc1ccc(C(=O)Nc2ccc3c(c2)OC[C@@H](C)N(C(C)=O)C[C@H](C)[C@@H](OC)CN(C)C3=O)cc1 | > 60 µM (inactive)
CO[C@H](CN(C)Cc1cc(F)ccc1F)[C@H](C)CN(C(=O)Nc1ccc(C(F)(F)F)cc1)[C@@H](C)CO | 7.48 µM
C[C@H](CO)N1C[C@H](C)[C@@H](CN(C)C(=O)Nc2ccc(C(F)(F)F)cc2)Oc2ccc(NC(=O)C3CC3)cc2C1=O | 15.5 µM
C[C@H]1CN([C@@H](C)CO)S(=O)(=O)c2ccc(C#CC3CCCC3)cc2O[C@@H]1CN(C)Cc1cccnc1 | > 60 µM (inactive)
O=C(C[C@@H]1CC[C@@H]2[C@H](COC[C@@H](O)CN2S(=O)(=O)c2ccccc2)O1)NCC1CCCCC1 | 15.2 µM
CCCNC(=O)C[C@H]1CC[C@H]2[C@@H](COC[C@@H](O)CN2C(=O)Nc2ccc(Cl)c(Cl)c2)O1 | 2.78 µM
CNC(=O)C[C@H]1CC[C@H]2[C@@H](COC[C@@H](O)CN2C(=O)Nc2ccc(Cl)c(Cl)c2)O1 | 2.75 µM
O=C(NCC[C@H]1CC[C@@H](NC(=O)C2CC2)[C@H](CO)O1)Nc1ccc(C(F)(F)F)cc1 | 9.05 µM
CO[C@H](CN(C)S(=O)(=O)c1cn(C)cn1)[C@@H](C)CN(C(=O)Nc1ccc(C(F)(F)F)cc1)[C@H](C)CO | 2.16 µM
COc1ccc(CN(C)C[C@H]2OCCCC[C@H](C)Oc3ccc(NC(=O)Nc4ccc(C(F)(F)F)cc4)cc3C(=O)N([C@@H](C)CO)C[C@@H]2C)cc1 | 16.6 µM
CO[C@@H]1CN(C)C(=O)c2cc(NC(=O)Nc3cc(Cl)cc(Cl)c3)ccc2OC[C@H](C)NC[C@@H]1C | 9.05 µM
CO[C@H]1CN(C)C(=O)c2cc(NC(C)=O)ccc2OC[C@@H](C)N(Cc2nccs2)C[C@@H]1C | > 60 µM (inactive)
CCNC(=O)C[C@@H]1CC[C@H]2[C@@H](COC[C@@H](O)CN2C(=O)Nc2ccc(Cl)c(Cl)c2)O1 | 2.6 µM
C[C@@H]1CN([C@H](C)CO)C(=O)c2cccc(NC(=O)Nc3ccc(C(F)(F)F)cc3)c2O[C@@H]1CN(C)Cc1ccc(Oc2ccccc2)cc1 | 18.8 µM
